Several values for one entry are separate records, joined by “and”; a condition that tells them apart may be missing. Identical values can stand only once.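 Assay format: 96-well plates, 48-hour exposure. Abbreviation: GI50, concentration required for 50% inhibition of growth. The concentration for full growth arrest is given as TGI.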
Tests used:
Test in all cases: NCI-60 cell line screen, 48 h
PC-3 prostate = test system: PC-3 prostate
HL-60(TB) leukemia = test system: HL-60(TB) leukemia
SK-MEL-28 melanoma = test system: SK-MEL-28 melanoma
SK-MEL-2 melanoma = test system: SK-MEL-2 melanoma
NCI-H522 lung = test system: NCI-H522 lung
HCT-116 colon = test system: HCT-116 colon
COLO 205 colon = test system: COLO 205 colon
UACC-62 melanoma = test system: UACC-62 melanoma
MDA-MB-435 = test system: MDA-MB-435
OVCAR-3 ovarian = test system: OVCAR-3 ovarian

SMILES | GI50 (PC-3 prostate) [µM] | TGI (PC-3 prostate) [µM] | GI50 (HL-60(TB) leukemia) | TGI (HL-60(TB) leukemia) | GI50 (SK-MEL-28 melanoma) | TGI (SK-MEL-28 melanoma) [µM] | GI50 (SK-MEL-2 melanoma) [µM] | TGI (SK-MEL-2 melanoma) | GI50 (NCI-H522 lung) | TGI (NCI-H522 lung) [µM] | GI50 (HCT-116 colon) | TGI (HCT-116 colon) [µM] | GI50 (COLO 205 colon) [µM] | TGI (COLO 205 colon) [µM] | GI50 (UACC-62 melanoma) | TGI (UACC-62 melanoma) [µM] | GI50 (MDA-MB-435) [µM] | TGI (MDA-MB-435) [µM] | GI50 (OVCAR-3 ovarian) | TGI (OVCAR-3 ovarian) [µM]
O=C(c1ccccc1)c1c2n(c3c1cc(O)c1ccccc13)CCN2 | 2.69 | 13 | 2.17 µM | 4.47 µM | 12.1 µM | 27.3 | 3.02 | 8.55 µM | 1.96 µM | 4.03 | 3.44 µM | 10.9 | 1.8 | 3.31 | 5.15 µM | 17.4 | 1.99 | 3.73 | 2.23 µM | 7.82
Cc1cc2nc3c4cc([N+](=O)[O-])ccc4n(CCN(C)C)c3nc2cc1C | 0.548 | 10.7 | 0.622 µM | 3.97 µM | 0.967 µM | 2.48 | 1 | 3.03 µM | 0.893 µM | 4.94 | 0.353 µM | 2.84 | 0.363 | 2.48 | 0.594 µM | 2.13 | 0.635 | 1.96 | 0.59 µM | 5.23
Oc1[nH]c2ccccc2c1/C=c1/ccc2c(c1)N=C(c1cc(F)cc(F)c1)N=2 | 3.37 | 16.7 | 12.6 µM | 40.5 µM | 7.24 µM | 20.2 | 5.71 | 20.8 µM | 3.64 µM | 18.6 | 2.43 µM | 8.06 | 8.45 | 23.4 | 4.18 µM | 20.3 | 1.92 | 5.08 | 5 µM | 17.9
CC(=O)Nc1ccc(Cc2ccc3[nH]c(=O)cc(C)c3c2)cc1 |  | > 100 |  | > 100 µM |  | > 100 |  | 77.7 µM |  | > 100 |  | > 100 |  | > 100 |  | > 100 |  | > 100 |  | > 100
CNC(=O)c1cc(Oc2ccc3nc(NC(=O)Nc4cc(C(F)(F)F)cc(C(F)(F)F)c4)sc3c2)ccn1 | 0.611 | 2.29 | 1.6 µM | 4.17 µM | 1.29 µM | 2.93 | 1.05 | 3.13 µM | 0.534 µM | 2.28 | 1.12 µM | 2.46 | 0.822 | 2.32 | 0.583 µM | 2.1 | 1.04 | 2.7 | 1.03 µM | 2.27
CC/C(=C(/CC)c1ccc(O)cc1)c1ccc(O)cc1 | 5.75 | 50.9 | 4.07 µM | > 100 µM | 6.96 µM | 19.9 | 9.23 | 26.7 µM | 5.79 µM | 23 | 4.92 µM | 15.9 | 6.31 | 19.7 | 3.89 µM | 16.8 | 1.87 | 5.14 | 2.72 µM | 7
COc1ccc(Nc2ncccc2C(=O)NCc2cn(Cc3cccc(Oc4ccccc4)c3)nn2)c(OC)c1 | 1.36 | > 100 | 2.55 µM | > 22.7 µM | 5.27 µM | > 100 | 5.03 | > 100 µM | 1.44 µM | 6.46 | 1.66 µM | > 100 | 2.11 | 5.7 | 1.19 µM | > 29.6 | 0.24 | 0.707 | 1.11 µM | 4.78
CCCCC1N=CNc2c1ccc1c2[nH]c2ccccc21 (centres undefined) |  | 3.23 |  | 3.68 µM |  | 24.6 |  | 8.89 µM |  | 3.57 |  | 3.32 |  | 3.27 |  | 8.94 |  | 3.35 |  | 12.2
NCCCCCCCCCn1c2c(c3ccccc3c1=O)C(=O)c1ccccc1-2 | 10.6 | 29.2 | 7.97 µM | 19.8 µM | 9.98 µM | 23 | 15.5 | > 50 µM | 8.83 µM | 24.4 | 6.5 µM | 17.2 | 10 | 25 | 9.35 µM | 18.1 | 9.52 | 19.1 | 9.46 µM | 18.8
Nc1nc(-c2ccc3ccccc3c2)cc(-c2cc(-c3ccc4ccccc4c3)nc(N)n2)n1 |  | > 100 |  | > 100 µM |  | > 100 |  | > 100 µM |  | > 100 |  | > 100 |  | > 100 |  | > 100 |  | > 100 |  | > 100
COc1ccc2c(c1)C(=O)c1c-2c(OCCN2CCCCC2)nc2ccc(OC)cc12 | 2.33 | 21.3 | 1.08 µM | 6.64 µM | 3.52 µM | 12.8 | 12.4 | 28.6 µM | 0.523 µM | 2.11 | 0.393 µM | 1.64 | 0.723 | 11.1 | 1.35 µM | 6.3 | 0.648 | 2.28 | 0.892 µM | 2.67
C=C(C)C1CCC2(C(=O)O)CCC3(C)C(CCC4C5(C)CCC(O)C(C)(C)C5CCC43C)C12 (centres undefined) |  | 23.8 |  | 10.5 µM |  | 41.8 |  | 32.2 µM |  | 18.2 |  | 17.5 |  | 16.6 |  | 32.2 |  | 48.4 |  | 7.98
O=[N+]([O-])c1cccc([I+]c2ccccc2)c1 | 7.78 | 26.1 | 4.93 µM | 41.2 µM | 10.5 µM | 23.2 | 17.8 | 35.2 µM | 11.3 µM | 23.5 | 7.05 µM | 24.2 | 10.1 | 33.6 |  |  | 11.6 | 29.2 | 11.3 µM | 26.8
COC1C(C)OC(OC2CC(C)(O)Cc3cc4c(c(O)c32)C(=O)c2c(O)cc3c(c2C4=O)OC2OC3(C)C(O)C(N(C)C)C2O)C(OC)C1(C)OC (centres undefined) |  | 0.00375 | 0.0711 µM and 0.105 µM | 0.588 µM and 0.535 µM | 0.0687 µM and 0.0334 µM |  | 0.0303 | 0.137 µM and 0.0386 µM | 0.093 µM and 0.0186 µM |  | 0.00273 µM and 0.0132 µM |  |  |  | 0.00441 µM and 0.0312 µM |  |  | 0.00306 | 0.104 µM and 0.0376 µM | 
